Several values for one entry are separate records, joined by “and”; a condition that tells them apart may be missing. Identical values can stand only once. Activity calls are given as the source filed them. No cut-off for these calls is given here.
What was measured:
[1] = molecular target: T1, Cyclin-dependent kinase 12 (Homo sapiens, UniProt Q9NYV4); test: Inhibition of CDK12 (unknown origin) in presence of ATP by kinase-glo plus luminescent assay
Target sequence in this assay (Q9NYV4 whole entry): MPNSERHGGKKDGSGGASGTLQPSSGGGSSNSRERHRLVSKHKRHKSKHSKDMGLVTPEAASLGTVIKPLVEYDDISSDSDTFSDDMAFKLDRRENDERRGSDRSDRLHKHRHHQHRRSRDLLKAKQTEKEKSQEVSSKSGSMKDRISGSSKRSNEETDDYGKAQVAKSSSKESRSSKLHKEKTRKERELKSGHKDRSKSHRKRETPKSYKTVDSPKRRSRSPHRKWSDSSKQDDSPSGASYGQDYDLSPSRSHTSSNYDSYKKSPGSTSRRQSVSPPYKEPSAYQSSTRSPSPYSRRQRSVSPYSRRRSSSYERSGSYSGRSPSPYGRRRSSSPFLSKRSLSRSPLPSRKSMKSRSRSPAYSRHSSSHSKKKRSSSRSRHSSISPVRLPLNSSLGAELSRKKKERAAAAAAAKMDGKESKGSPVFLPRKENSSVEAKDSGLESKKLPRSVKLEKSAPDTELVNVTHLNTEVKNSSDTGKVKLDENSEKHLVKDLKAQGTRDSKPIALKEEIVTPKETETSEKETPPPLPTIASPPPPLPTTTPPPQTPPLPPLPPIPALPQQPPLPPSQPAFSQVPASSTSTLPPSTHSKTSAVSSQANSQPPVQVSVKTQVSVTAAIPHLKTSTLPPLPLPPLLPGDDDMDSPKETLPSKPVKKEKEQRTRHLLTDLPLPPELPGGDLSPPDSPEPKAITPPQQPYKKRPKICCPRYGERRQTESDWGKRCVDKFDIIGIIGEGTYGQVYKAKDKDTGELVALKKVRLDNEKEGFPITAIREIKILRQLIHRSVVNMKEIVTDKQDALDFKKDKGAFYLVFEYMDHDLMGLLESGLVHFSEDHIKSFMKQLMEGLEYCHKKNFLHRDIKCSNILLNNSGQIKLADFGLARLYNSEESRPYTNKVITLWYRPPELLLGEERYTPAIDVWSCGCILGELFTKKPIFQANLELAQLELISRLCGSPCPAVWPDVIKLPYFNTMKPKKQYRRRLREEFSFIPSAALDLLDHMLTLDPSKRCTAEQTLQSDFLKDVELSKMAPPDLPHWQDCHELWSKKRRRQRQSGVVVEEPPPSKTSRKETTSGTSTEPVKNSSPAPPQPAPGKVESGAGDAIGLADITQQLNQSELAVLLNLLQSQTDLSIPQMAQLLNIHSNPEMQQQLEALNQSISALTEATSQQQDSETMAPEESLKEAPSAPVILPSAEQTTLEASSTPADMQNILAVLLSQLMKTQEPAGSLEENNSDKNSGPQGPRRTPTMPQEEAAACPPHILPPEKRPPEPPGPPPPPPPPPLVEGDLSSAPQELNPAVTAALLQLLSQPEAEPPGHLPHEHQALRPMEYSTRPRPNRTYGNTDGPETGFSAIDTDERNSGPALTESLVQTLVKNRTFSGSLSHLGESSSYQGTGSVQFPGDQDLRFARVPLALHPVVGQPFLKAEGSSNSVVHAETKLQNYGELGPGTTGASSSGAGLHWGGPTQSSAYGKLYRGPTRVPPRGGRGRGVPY

[2] = molecular target: Poly [ADP-ribose] polymerase 2 (Homo sapiens, UniProt Q9UGN5); test: Inhibition of PARP2 (unknown origin) incubated for 1 hr by ELISA analysis
[3] = molecular target: T1, Cyclin-dependent kinase 12; test: Inhibition of CDK12 (unknown origin) at 1 uM in presence of ATP by kinase-glo plus luminescent assay relative to control
Target sequence in this assay (Q9NYV4 whole entry, looked up): as the sequence (Q9NYV4 whole entry) above

MDA-MB-231 [4] = test: Antiproliferative activity against human MDA-MB-231 cells assessed as inhibition of cell growth incubated for 24 hrs by MTT assay; assay type: functional, cell-based; conditions: MDA-MB-231, 24 h
MDA-MB-468 [5] = test: Antiproliferative activity against human MDA-MB-468 cells assessed as inhibition of cell growth incubated for 24 hrs by MTT assay; assay type: functional, cell-based; conditions: MDA-MB-468, 24 h
MDA-MB-436 [6] = test: Antiproliferative activity against human MDA-MB-436 cells assessed as inhibition of cell growth incubated for 24 hrs by MTT assay; assay type: functional, cell-based
[7] = molecular target: Poly [ADP-ribose] polymerase 1 (Homo sapiens, UniProt P09874); test: Inhibition of PARP1 (unknown origin) incubated for 1 hr by ELISA analysis
MDA-MB-231 [8] = test: Antiproliferative activity against human MDA-MB-231 cells assessed as inhibition of cell growth incubated for 48 hrs by MTT assay; assay type: functional, cell-based; conditions: MDA-MB-231, 48 h
MDA-MB-468 [9] = test: Antiproliferative activity against human MDA-MB-468 cells assessed as inhibition of cell growth incubated for 48 hrs by MTT assay; assay type: functional, cell-based; conditions: MDA-MB-468, 48 h
MDA-MB-231 [10] = test: Synergistic antiproliferative activity against human MDA-MB-231 cells in presence of Olaparib incubated for 24 hrs by MTT assay; assay type: functional, cell-based
MDA-MB-436 [11] = test: Antiproliferative activity against human MDA-MB-436 cells assessed as inhibition of cell growth incubated for 72 hrs by MTT assay; assay type: functional, cell-based; conditions: MDA-MB-436, 72 h
MDA-MB-468 [12] = test: Antiproliferative activity against human MDA-MB-468 cells assessed as inhibition of cell growth incubated for 72 hrs by MTT assay; assay type: functional, cell-based; conditions: MDA-MB-468, 72 h
MDA-MB-436 [13] = test: Antiproliferative activity against human MDA-MB-436 cells assessed as inhibition of cell growth incubated for 48 hrs by MTT assay; assay type: functional, cell-based; conditions: MDA-MB-436, 48 h
MDA-MB-231 [14] = test: cells; conditions: Homo sapiens, MDA-MB-231, 72 h
[15] = Metabolic stability in BALB/c mouse liver microsome assessed as intrinsic clearance in presence of NADPH incubated upto 60 mins by LC-MS/MS analysis; assay type: ADME; conditions: liver microsomes, read-out: CLH
[16] = Metabolic stability in human liver microsome assessed as intrinsic clearance in presence of NADPH incubated upto 60 mins by LC-MS/MS analysis; assay type: ADME; conditions: liver microsomes, read-out: CLH
[17] = Metabolic stability in BALB/c mouse liver microsome assessed as half life in presence of NADPH incubated upto 60 mins by LC-MS/MS analysis; assay type: ADME; conditions: liver microsomes
[18] = Metabolic stability in human liver microsome assessed as half life in presence of NADPH incubated upto 60 mins by LC-MS/MS analysis; assay type: ADME; conditions: liver microsomes

Sequence of Poly [ADP-ribose] polymerase 2 (Q9UGN5 whole entry): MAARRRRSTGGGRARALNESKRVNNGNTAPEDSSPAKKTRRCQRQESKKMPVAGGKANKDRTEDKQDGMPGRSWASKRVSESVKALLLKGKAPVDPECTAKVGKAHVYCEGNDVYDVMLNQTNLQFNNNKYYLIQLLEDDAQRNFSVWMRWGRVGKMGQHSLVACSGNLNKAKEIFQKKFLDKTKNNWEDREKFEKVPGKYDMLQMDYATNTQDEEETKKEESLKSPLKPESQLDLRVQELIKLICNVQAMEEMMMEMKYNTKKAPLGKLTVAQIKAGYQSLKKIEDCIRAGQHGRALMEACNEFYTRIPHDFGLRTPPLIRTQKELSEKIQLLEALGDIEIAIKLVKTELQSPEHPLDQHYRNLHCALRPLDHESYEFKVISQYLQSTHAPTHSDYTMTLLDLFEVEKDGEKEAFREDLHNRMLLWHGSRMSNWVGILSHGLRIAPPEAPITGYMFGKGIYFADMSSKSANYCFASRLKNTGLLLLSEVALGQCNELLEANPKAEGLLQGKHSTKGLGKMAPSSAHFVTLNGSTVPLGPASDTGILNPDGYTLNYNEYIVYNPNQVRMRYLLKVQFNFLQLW
Sequence of Poly [ADP-ribose] polymerase 1 (P09874 whole entry): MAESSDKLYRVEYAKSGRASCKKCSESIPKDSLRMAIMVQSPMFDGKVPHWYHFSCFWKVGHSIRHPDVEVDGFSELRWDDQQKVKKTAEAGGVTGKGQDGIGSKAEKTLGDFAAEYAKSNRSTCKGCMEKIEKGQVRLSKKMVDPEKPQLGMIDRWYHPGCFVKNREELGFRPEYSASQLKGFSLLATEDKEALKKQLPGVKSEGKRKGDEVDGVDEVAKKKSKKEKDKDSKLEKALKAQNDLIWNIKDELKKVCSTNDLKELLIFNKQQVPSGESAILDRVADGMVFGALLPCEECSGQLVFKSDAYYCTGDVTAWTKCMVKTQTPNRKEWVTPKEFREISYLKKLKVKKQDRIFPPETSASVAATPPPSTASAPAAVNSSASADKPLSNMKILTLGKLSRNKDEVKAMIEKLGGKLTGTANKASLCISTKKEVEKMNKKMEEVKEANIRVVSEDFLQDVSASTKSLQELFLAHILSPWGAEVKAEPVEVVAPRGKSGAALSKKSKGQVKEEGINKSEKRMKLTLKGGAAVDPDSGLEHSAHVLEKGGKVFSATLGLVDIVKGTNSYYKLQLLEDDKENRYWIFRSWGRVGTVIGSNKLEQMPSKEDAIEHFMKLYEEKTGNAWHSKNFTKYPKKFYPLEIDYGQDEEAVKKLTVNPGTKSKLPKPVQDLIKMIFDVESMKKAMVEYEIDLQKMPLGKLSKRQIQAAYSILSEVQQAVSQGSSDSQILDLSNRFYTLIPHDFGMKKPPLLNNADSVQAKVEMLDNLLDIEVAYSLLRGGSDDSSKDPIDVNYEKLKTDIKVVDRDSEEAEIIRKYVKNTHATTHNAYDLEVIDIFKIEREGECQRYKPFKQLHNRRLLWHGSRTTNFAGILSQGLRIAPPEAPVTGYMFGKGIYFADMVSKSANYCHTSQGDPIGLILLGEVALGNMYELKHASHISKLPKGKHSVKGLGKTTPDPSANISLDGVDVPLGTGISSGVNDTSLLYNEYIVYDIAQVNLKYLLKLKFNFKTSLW

Row | IC50 [1] [µM] | IC50 [2] [µM] | inhibition [3] [%] | IC50 (MDA-MB-231 [4]) [µM] | IC50 (MDA-MB-468 [5]) [µM] | IC50 (MDA-MB-436 [6]; Homo sapiens, MDA-MB-436, 24 h) [µM] | IC50 [7] [µM] | IC50 (MDA-MB-231 [8]) [µM] | IC50 (MDA-MB-468 [9]) [µM] | IC50 (MDA-MB-436 [11]) [µM] | IC50 (MDA-MB-468 [12]) [µM] | IC50 (MDA-MB-436 [13]) [µM] | IC50 (MDA-MB-231 [14]) [µM] | IC50 (MDA-MB-436 [6]; mda-mb-436) | SMILES | Activity (MDA-MB-231 [10]) | CLint scaled [15] [mL/min/kg] | CLint scaled [16] [mL/min/kg] | half-life [17] [min] | half-life [18] [min]
1 | 0.344 | 0.032 | 75.4 | 10.2 | 12.4 | 11.1 | 0.037 |  |  |  |  |  |  |  | NC(=O)c1cccc2[nH]c(NC(=O)c3cccc(C(=O)N4CCC(Nc5ncc(Br)cn5)CC4)c3)nc12 |  |  |  |  | 
2 |  |  | 98.6 |  |  |  |  | 17.9 | 14.4 | 6.4 | 5.8 | 18.1 | 7.1 | 14.3 µM and 4.6 µM | CN(C)C/C=C/C(=O)Nc1ccc(C(=O)N2CCC[C@@H](Nc3ncc(Cl)c(-c4c[nH]c5ccccc45)n3)C2)cc1 | Active |  |  |  | 
3 |  |  | 7 | 3.5 | 3.4 | 4.6 |  | 1.7 | 1.4 | 0.7 | 0.6 | 1.5 | 0.8 |  | O=C(c1cc(Cc2n[nH]c(=O)c3ccccc23)ccc1F)N1CCN(C(=O)C2CC2)CC1 [OLAPARIB] |  |  |  |  | 
4 | > 10 | 0.065 | 24.3 | > 30 | > 30 | 28.7 | 0.071 |  |  |  |  |  |  |  | NC(=O)c1cccc2[nH]c(NC(=O)c3cccc(C(=O)N4CCC(Nc5ncc(F)cn5)CC4)c3)nc12 |  |  |  |  | 
5 | 0.269 | 0.131 | 79.4 | 10.3 | 10.5 | 11.2 | 0.167 |  |  |  |  |  |  |  | NC(=O)c1cccc2[nH]c(NC(=O)c3cccc(C(=O)N4CCC(Nc5ncc(C(F)(F)F)cn5)CC4)c3)nc12 |  |  |  |  | 
6 | 0.554 | 0.035 | 68.3 | 15.6 | 14.2 | 12.6 | 0.043 |  |  |  |  |  |  |  | NC(=O)c1cccc2[nH]c(NC(=O)c3cccc(C(=O)N4CCC(Nc5ncc(Cl)cn5)CC4)c3)nc12 |  |  |  |  | 
7 |  |  |  |  |  |  |  |  |  |  |  |  |  |  | O=C(c1ccc(F)cc1)C1CCN(CCn2c(=O)[nH]c3ccccc3c2=O)CC1 [KETANSERIN] |  | 185 | 47.7 | 29.4 | 33.6

From ChEMBL document CHEMBL5625183, “Discovery of a novel dual-target inhibitor of CDK12 and PARP1 that induces synthetic lethality for treatment of triple-negative breast cancer” (Eur J Med Chem, 2023)
